Experiment [1] relates to NF-κB. Put plainly: NF-κB assay: THP1-NF-κB-LUC cells, LPS-stimulated secreted luciferase. Format: cell-based. The note with it: THP1-NF-κB-LUC cells, read-out: IC50 (NF-κB assay). The essentials:
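THP1-NF-κB-LUC cells (25k/well) were pretreated with compounds for 2 h, then stimulated with LPS (10 ng/mL) for 18 h. Secreted luciferase was measured and normalized to vehicle, and IC50 was fitted from the concentration series.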

Experiment [2] relates to TNF release. The experiment is described as follows: TNF assay: TNF release from LPS-stimulated human PBMCs (TNF ELISA). Format: cell-based. To be noted: PBMC, read-out: IC50 (TNF assay). The essentials: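 Human PBMCs at 10k/well pretreated with compound dilutions 2 h, then stimulated with LPS (10 ng/mL) for 18 h. TNF in supernatants quantified by ELISA; IC50 for inhibition of TNF release fitted from concentration–response.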
(In general: In an ELISA, binding on a coated surface is turned into a signal by an enzyme label.)

Setting [3] is: compounds 2 hours before LPS (10 ng/mL) for 18 hours, secreted luciferase.
Setting [4] is: human PBMCs, compounds 2 hours before LPS (10 ng/ml) for 18 hours, supernatant TNF ELISA.

SMILES strings stand for the structures. pIC50: −log10 of the molar value. Read-outs that look alike come from different tables or passages of the source.

This is an account of results in US12606528B2, “Methods and materials for inhibiting NF-kB activity” (University of Pittsburgh - Of the Commonwealth System of …, priority 2019, dated 2026).

The pIC50 is −log10 of the IC50, conventionally taken in molar units.

Take `CCc1cccc(NS(=O)(=O)c2cc3c(cc2Br)N(C)C(=O)C(C)O3)c1` (stereo not drawn) [BC19901]: the pIC50 was 5.00 to 6.00 in experiment [1] (setting [3]) and under 5.00 in experiment [2] (setting [4]).
The matching figures for `CC1Oc2c(cc(Br)cc2S(=O)(=O)Nc2cccc(F)c2)N(C)C1=O` (stereo not drawn) [BC19902]: over 7.00 and under 5.00.
For the molecule `CC1Oc2cc(S(=O)(=O)Nc3cccc(F)c3)c(Br)cc2N(C)C1=O` (stereo not drawn) [BC19903], the figures for the negative logarithm of the IC50 (pIC50) in experiment [1] (setting [3]) and in experiment [2] (setting [4]) were 6.00 to 7.00 and under 5.00, respectively.
Take `CC1Oc2c(cc(Br)cc2S(=O)(=O)Nc2cccc(Cl)c2)N(C)C1=O` (stereo not drawn) [BC19904]: the pIC50 in experiment [1] (setting [3]) is over 7.00; in experiment [2] (setting [4]), under 5.00.
The matching figures for `CC1Oc2cc(S(=O)(=O)Nc3cccc(Cl)c3)c(Br)cc2N(C)C1=O` (stereo not drawn) [BC19905]: 5.00 to 6.00 and under 5.00.
`Cc1ccc(NS(=O)(=O)c2cc(Br)cc3c2OC(C)C(=O)N3C)cc1` (stereo not drawn) [BC19906]: the pIC50 in experiment [1] (setting [3]) is over 7.00; in experiment [2] (setting [4]), 5.00 to 6.00.
For `CC1Oc2cc(S(=O)(=O)Nc3ccc(F)cc3Cl)c(Br)cc2N(C)C1=O` (stereo not drawn) [BC19907], in that order: under 5.00 and under 5.00.
The matching figures for `CC1Oc2c(cc(Br)cc2S(=O)(=O)Nc2ccc(F)cc2Cl)N(C)C1=O` (stereo not drawn) [BC19908]: over 7.00 and under 5.00.
With `COc1ccc(NS(=O)(=O)c2cc(Br)cc3c2OC(C)C(=O)N3C)cc1Cl` (stereo not drawn) [BC19909], the pIC50 in experiment [1] (setting [3]) and in experiment [2] (setting [4]) was under 5.00 each time.
Consider `CC1Oc2cc(S(=O)(=O)Nc3ccc(F)cc3)c(Br)cc2N(C)C1=O` (stereo not drawn) [BC19910], for which the pIC50 in experiment [1] (setting [3]) is 5.00 to 6.00; in experiment [2] (setting [4]) it was under 5.00.
Regarding `CC1Oc2c(cc(Br)cc2S(=O)(=O)Nc2ccc(F)cc2)N(C)C1=O` (stereo not drawn) [BC19911], the figures for the pIC50 in experiment [1] (setting [3]) and in experiment [2] (setting [4]) were over 7.00 and under 5.00, respectively.
Turning to `Cc1ccc(NS(=O)(=O)c2cc3c(cc2Br)N(C)C(=O)C(C)O3)cc1` (stereo not drawn) [BC19912], the pIC50 in experiment [1] (setting [3]) and in experiment [2] (setting [4]) was under 5.00 throughout.
As to `CCC1Oc2c(cc(Br)cc2S(=O)(=O)Nc2ccc(F)cc2F)N(C)C1=O` (stereo not drawn) [BC19913], the pIC50 in experiment [1] (setting [3]) was over 7.00; in experiment [2] (setting [4]), under 5.00.
In the case of `CCC1Oc2cc(S(=O)(=O)Nc3ccc(F)cc3F)c(Br)cc2N(C)C1=O` (stereo not drawn) [BC19914], the figures for the pIC50 in experiment [1] (setting [3]) and in experiment [2] (setting [4]) were 6.00 to 7.00 and under 5.00, respectively.
For `CCc1cccc(NS(=O)(=O)c2cc(Br)cc3c2OC(CC)C(=O)N3C)c1` (stereo not drawn) [BC19915], in that order: over 7.00 and under 5.00.
The matching figures for `CCc1cccc(NS(=O)(=O)c2cc3c(cc2Br)N(C)C(=O)C(CC)O3)c1` (stereo not drawn) [BC19916]: 5.00 to 6.00 and under 5.00.
Turning to `O=C(O)c1cc2c(c(NS(=O)(=O)c3ccc(F)c(F)c3)c1)N1CCCC1C(=O)N2` (stereo not drawn) [BC19917], the negative-log IC50 (pIC50) in experiment [1] (LPS-stimulated) was under 5.00; in experiment [2] (LPS-stimulated human PBMCs, TNF ELISA), under 5.00.
As to `COc1ccc(NS(=O)(=O)c2cc3c(cc2Br)N(C)C(=O)C(C)O3)cc1Cl` (stereo not drawn) [BC19919], the pIC50 in experiment [1] (setting [3]) and in experiment [2] (setting [4]) was under 5.00 in each case.
Regarding `CC1Oc2cc(S(=O)(=O)Nc3ccc(C#N)cc3)c(Br)cc2N(C)C1=O` (stereo not drawn) [BC19920], the pIC50 in experiment [1] (setting [3]) was 6.00 to 7.00; in experiment [2] (setting [4]) it was under 5.00.
For `CCC1Oc2c(cc(Br)cc2S(=O)(=O)Nc2ccc(OC(F)(F)F)cc2)N(C)C1=O` (stereo not drawn) [BC19921], in that order: over 7.00 and 5.00 to 6.00.
For `CCC1Oc2cc(S(=O)(=O)Nc3ccc(OC(F)(F)F)cc3)c(Br)cc2N(C)C1=O` (stereo not drawn) [BC19922], in that order: over 7.00 and under 5.00.
The matching figures for `CCC1Oc2c(cc(Br)cc2S(=O)(=O)Nc2ccc(C)c(F)c2)N(C)C1=O` (stereo not drawn) [BC19923]: over 7.00 and 5.00 to 6.00.
As for `CCC1Oc2cc(S(=O)(=O)Nc3ccc(C)c(F)c3)c(Br)cc2N(C)C1=O` (stereo not drawn) [BC19924], the results for the pIC50 in experiment [1] (setting [3]) and in experiment [2] (setting [4]) were over 7.00 and 5.00 to 6.00, respectively.
For `CCC1Oc2c(cc(Br)cc2S(=O)(=O)Nc2ccc(F)c(F)c2)N(C)C1=O` (stereo not drawn) [BC19925], the pIC50 in experiment [1] (setting [3]) is over 7.00; in experiment [2] (setting [4]), 5.00 to 6.00.
For `CCC1Oc2cc(S(=O)(=O)Nc3ccc(F)c(F)c3)c(Br)cc2N(C)C1=O` (stereo not drawn) [BC19926], in that order: over 7.00 and under 5.00.
Consider `CCC1Oc2c(cc(Br)cc2S(=O)(=O)Nc2ccccc2)N(C)C1=O` (stereo not drawn) [BC19927], for which the pIC50 in experiment [1] (setting [3]) was over 7.00; in experiment [2] (setting [4]) it was 5.00 to 6.00.
The matching figures for `CCC1Oc2cc(S(=O)(=O)Nc3ccccc3)c(Br)cc2N(C)C1=O` (stereo not drawn) [BC19928]: 6.00 to 7.00 and 5.00 to 6.00.
The matching figures for `CCC1Oc2c(cc(Br)cc2S(=O)(=O)Nc2ccc(Cl)cc2)N(C)C1=O` (stereo not drawn) [BC19929]: over 7.00 and 5.00 to 6.00.
Consider `CCC1Oc2cc(S(=O)(=O)Nc3ccc(Cl)cc3)c(Br)cc2N(C)C1=O` (stereo not drawn) [BC19930], for which the pIC50 in experiment [1] (setting [3]) was 6.00 to 7.00; in experiment [2] (setting [4]), under 5.00.
Turning to `CCc1ccc(NS(=O)(=O)c2cc(Br)cc3c2OC(CC)C(=O)N3C)cc1` (stereo not drawn) [BC19931], the pIC50 in experiment [1] (setting [3]) was over 7.00; in experiment [2] (setting [4]), 5.00 to 6.00.
For `CCc1ccc(NS(=O)(=O)c2cc3c(cc2Br)N(C)C(=O)C(CC)O3)cc1` (stereo not drawn) [BC19932], in that order: over 7.00 and 5.00 to 6.00.
Regarding `CCC1Oc2c(cc(Br)cc2S(=O)(=O)Nc2ccc(C(C)C)cc2)N(C)C1=O` (stereo not drawn) [BC19933], the pIC50 in experiment [1] (setting [3]) was over 7.00; in experiment [2] (setting [4]) it was 5.00 to 6.00.
For the molecule `CCC1Oc2cc(S(=O)(=O)Nc3ccc(C(C)C)cc3)c(Br)cc2N(C)C1=O` (stereo not drawn) [BC19934], the results for the negative-log IC50 (pIC50) in experiment [1] (setting [3]) and in experiment [2] (setting [4]) were 6.00 to 7.00 and 5.00 to 6.00, respectively.
The matching figures for `CCC1Oc2c(cc(Br)cc2S(=O)(=O)Nc2ccc(OC)cc2)N(C)C1=O` (stereo not drawn) [BC19935]: over 7.00 and 5.00 to 6.00.
The matching figures for `CCC1Oc2cc(S(=O)(=O)Nc3ccc(OC)cc3)c(Br)cc2N(C)C1=O` (stereo not drawn) [BC19936]: over 7.00 and under 5.00.
With `CCC1Oc2c(cc(Br)cc2S(=O)(=O)Nc2ccc(C)c(Cl)c2)N(C)C1=O` (stereo not drawn) [BC19937], the pIC50 in experiment [1] (setting [3]) was over 7.00; in experiment [2] (setting [4]), 5.00 to 6.00.
For `CCC1Oc2cc(S(=O)(=O)Nc3ccc(C)c(Cl)c3)c(Br)cc2N(C)C1=O` (stereo not drawn) [BC19938], in that order: 6.00 to 7.00 and 5.00 to 6.00.
As to `COc1ccc2[nH]cc(S(=O)(=O)c3ccc(F)c(F)c3)c(=O)c2n1` [BC 19203], the pIC50 is 5.00 to 6.00 in experiment [1] (setting [3]) and under 5.00 in experiment [2] (setting [4]).
With `O=S(=O)(c1ccc(Br)cc1)c1cnccc1O` [BC 19460], the pIC50 in experiment [1] (setting [3]) and in experiment [2] (setting [4]) was under 5.00 each time.
